Series [1] can be described thus: Dissolution test in medium simulating gastric juice (0.1N HCl), 30 min. As to conditions: Medium 0.1N HCl. Format: physicochemical. The protocol: (§1) Dissolution Test in 0.1 HCl and pH 6.8 Phosphate Buffer, 30 Min
(§2) The dissolution of TML-6 (API alone) and TML-6 formulations (E01 to E12) were measured in mediums simulating gastric juice for 30 mins, and the results are as shown in Table 5 and 6. The dissolution of TML-6 (API alone) and TML-6 formulations (E13 to E17) were measured in mediums simulating intestinal juice for 30 mins, and the results are as shown in Table 6.

Series [2] is described as follows: Dissolution test in medium simulating intestinal juice (pH 6.8 phosphate buffer), 30 min. Format: physicochemical. As to conditions: Medium pH 6.8 Phosphate Buffer. The protocol:
as §1, §2

Series [3] in a line: Pharmacokinetics (PK) studies in rats, single oral dose. Format: in vivo. As to conditions: male, Sprague-Dawley, TML-6 in rat plasma, 25.0 mg/kg single dose, 0.5% MC suspension. Here is the method:
The objective of this study is to obtain the pharmacokinetic profiles of TML-6 API (unformulated, crystalline), TML-6 formulation E02 (crystalline) and TML-6 formulations E10, E12 and E13 (amorphous) though oral (PO) doses when administrated to 6-8 week old male Sprague-Dawley rats (BioLASCO Taiwan Co. Ltd). A study design of five doses on rats. Animals received a single dose of TML-6 API, TML-6 formulations E02, E10, E12 and E13 at 25 mg/kg via oral gavage.
Dosing Solution Preparation: The TML-6 API, E02, E10, E12 and E13 oral formulations were prepared by suspending these TML6 formulated powder in the aqueous vehicle composed of 0.5% methylcellulose (MC) to the concentration of 2.5 mg/mL TML-6, respectively.
Plasma Sample Preparation and Bioanalysis Serial blood samples were collected from all animals through the tail veins. Approximately 0.2 mL blood samples were collected at each following time points: predose and 0.083, 0.25, 0.5, 1, 2, 4, 6, 8, 10 and 24 hours post-dose. Separation of plasma was prepared by centrifugation (1,000×g for 15 minutes at 4° C.) after blood sampling. Concentrations of TML-6 in rat plasma were determined by liquid chromatography-tandem mass spectrometry (LC-MS/MS), as shown in FIGS. 6 and 7. The lower limit of quantification (LLOQ) was 0.1 ng/mL. […]

SMILES strings stand for the structures.

`CCN(CC)C(=O)CC(C)(C(=O)/C=C/c1ccc(OC)c(OC)c1)C(=O)/C=C/c1ccc(OC)c(OC)c1` [API alone]: in series [1], the “Dissolution within 30 min” value is on record as 0.1%. For the same molecule, in series [2], the “Dissolution within 30 mins” value is 0.06%. For the same molecule, in series [3], the AUC(0-inf) – broadly, the area under the concentration-time curve extrapolated to infinity – came to 0.0736 µg·h/mL and the Cmax – broadly, the maximum level reached in the sampled fluid or tissue – is 0.0253 µg/mL.

The values are drawn from patent publication US20240366535A1, “FORMULATION WITH IMPROVED BIOAVAILABILITY” (MERRY LIFE BIOMEDICAL COMPANY, LTD., priority 2023, published 2024).
